Measurements reported in US20160045505A1, “COMPOUNDS AND COMPOSITIONS FOR THE TREATMENT OF PARASITIC DISEASES” (NOVARTIS AG, priority 2013, published 2016).
Read-outs that look alike come from different tables or passages of the source.

Legend:
[1] = system: L. donovani HU3 strain in mouse peritoneal macrophages; assay: Assay for proliferation of Leishmania parasites in infected mouse peritoneal macrophages (SybrGreen staining, high-content imaging, 5 days); format: cell-based, Leishmania donovani; details: Leishmania donovani, Peritoneal macrophage, L. donovani in mouse peritoneal macrophages; read-out: L. donovani Macrophage EC50
[2] = system: Trypanosoma brucei Lister 427 strain, bloodstream form; assay: Assay for proliferation of kinetoplastid parasite Trypanosoma brucei (Cell Titer Glo, 48 hours); format: cell-based; details: Trypanosoma brucei
Method in brief: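 Bloodstream-form T. brucei Lister 427 in HMI-9 medium was exposed to compound (DMSO vehicle) for 48 hours at 37° C, 5% CO2. Parasite growth was read as ATP by CellTiter-Glo luminescence, with EC50 calculated from percent inhibition.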

[3] = system: Leishmania donovani axenic amastigote parasites; assay: Leishmania donovani axenic amastigote proliferation assay (Cell TiterGlo luminescence, 2 day incubation); format: cell-based; details: Leishmania donovani, L. donovani axenic amastigotes; read-out: L. donovani amastigotes EC50
[4] = system: Trypanosoma cruzi amastigotes (Tulahuen strain expressing Lac-Z) cultured in 3T3 fibroblast cells; assay: microbe, parasite or virus in culture; format: cell-based; details: Trypanosoma cruzi, TULAHUEN, Fibroblast, T. cruzi amastigotes in 3T3 fibroblast cells; read-out: T cruzi EC50
[5] = T. brucei Lister 427 bloodstream form, read-out: T. brucei EC50

| SMILES | EC50 [1] | EC50 [2, 5] | EC50 [3] | EC50 [4] | EC50 ([2]; read-out: T. brucei EC50 (μM)) |
| --- | --- | --- | --- | --- | --- |
| Cc1nc(C)c(C(=O)Nc2ccc(F)c(-c3cn4cc(-c5cncc(C(C)C)c5)cnc4n3)c2)o1 [Compound 438] | 282 nM | 0.109 µM | 141 nM | 146 nM |  |
| Cc1cnc(F)c(-c2cnc3nc(-c4cc(NC(=O)c5oc(C)nc5C)ccc4F)cn3c2)c1 [Compound 439] | 754 nM | 0.121 µM | 108 nM | 89 nM |  |
| Cc1cncc(-c2cnc3nc(-c4cc(NC(=O)c5oc(C)nc5C)ccc4F)cn3c2)c1 [Compound 440] | 200 nM | 0.315 µM | 119 nM | 238 nM |  |
| Cc1ccc(-c2cnc3nc(-c4cc(NC(=O)c5oc(C)nc5C)ccc4F)cn3c2)cn1 [Compound 441] | 912 nM | 0.309 µM | 97 nM | 141 nM |  |
| Cc1nc(C)c(C(=O)Nc2ccc(F)c(-c3cn4cc(-c5cnccc5C)cnc4n3)c2)o1 [Compound 442] | 208 nM | 0.055 µM | 87 nM | 48 nM |  |
| Cc1nc(C)c(C(=O)Nc2ccc(F)c(-c3cn4cc(-c5cncc(F)c5)cnc4n3)c2)o1 [Compound 443] | 146 nM | 0.034 µM | 81 nM | 103 nM |  |
| Cc1nc(C)c(C(=O)Nc2ccc(F)c(-c3cn4cc(-c5ccncc5F)cnc4n3)c2)o1 [Compound 444] | 183 nM | 0.025 µM | 86 nM | 50 nM |  |
| Cc1ccc(-c2cnc3nc(-c4cc(NC(=O)c5oc(C)nc5C)ccc4F)cn3c2)nc1 [Compound 445] | 688 nM | 0.031 µM | 12 nM | 14 nM |  |
| Cc1nc(C)c(C(=O)Nc2ccc(F)c(-c3cn4cc(-c5cnc(C(C)C)cn5)cnc4n3)c2)o1 [Compound 446] | 146 nM | 0.161 µM | 33 nM | 122 nM |  |
| Cc1nc(C)c(C(=O)Nc2ccc(F)c(-c3cn4cc(-c5ncc(F)cc5F)cnc4n3)c2)o1 [Compound 447] | 1380 nM | 0.103 µM | 36 nM | 20 nM |  |
| Cc1ccc(-c2cnc3nc(-c4cc(NC(=O)c5oc(C)nc5C)ccc4F)cn3c2)nn1 [Compound 448] | 5150 nM | 0.157 µM | 108 nM | 798 nM |  |
| Cc1nc(C)c(C(=O)Nc2ccc(F)c(-c3cn4cc(-c5ncccc5F)cnc4n3)c2)o1 [Compound 449] | 54 nM | 0.056 µM | 28 nM | 22 nM |  |
| Cc1nc(C)c(C(=O)Nc2ccc(F)c(-c3cn4cc(-c5ccc(CCN(C)C)cc5)cnc4n3)c2)o1 [Compound 450] | 2990 nM | 0.499 µM | 4620 nM | 397 nM |  |
| CNCCc1ccc(-c2cnc3nc(-c4cc(NC(=O)c5oc(C)nc5C)ccc4F)cn3c2)cc1 [Compound 451] | 1930 nM | 0.968 µM | 6470 nM | 1950 nM |  |
| Cc1cnc(-c2cnc3nc(-c4cc(NC(=O)c5oc(C)nc5C)ccc4F)cn3c2)cn1 [Compound 452] | 61 nM | 0.097 µM | 19 nM | 45 nM |  |
| Cc1nc(C)c(C(=O)Nc2ccc(F)c(-c3cn4cc(-c5ncccc5C)cnc4n3)c2)o1 [Compound 453] | 23 nM | 0.021 µM | 17 nM | 15 nM |  |
| Cc1cccc(-c2cnc3nc(-c4cc(NC(=O)N5CCCC5)ccc4F)cn3c2)n1 [Compound 455, N-(4-fluoro-3-(6-(6-methylpyridin-2-yl)imidazo[1,2-a]pyrimidin-2-yl)phenyl)pyrrolidine-1-carboxamide] | 681 nM | 0.134 µM | 225 nM | 215 nM |  |
| O=C(Nc1ccc(Cl)c(-c2cn3cc(-c4ccccn4)cnc3n2)c1)N1CCCC1 [Compound 456, N-(4-chloro-3-(6-(pyridin-2-yl)imidazo[1,2-a]pyrimidin-2-yl)phenyl)pyrrolidine-1-carboxamide] | 218 nM |  | 42 nM | 40 nM | 0.054 µM |
| COc1cccc(-c2cnc3nc(-c4cc(NC(=O)c5oc(C)nc5C)ccc4F)cn3c2)n1 [Compound 458] | 513 nM | 0.12 µM | 75 nM | 43 nM |  |
| CC(C)Nc1cnc2nc(-c3cc(NC(=O)N4CC(F)(F)C4)ccc3F)cn2c1 [Compound 460, 3,3-difluoro-N-(4-fluoro-3-(6-(isopropylamino)imidazo[1,2-a]pyrimidin-2-yl)phenyl)azetidine-1-carboxamide] | 208 nM | 0.164 µM | 241 nM | 182 nM |  |
| CC(C)Nc1cnc2nc(-c3cc(NC(=O)N4CC[C@@H](F)C4)ccc3F)cn2c1 [Compound 461] | 185 nM | 0.055 µM | 234 nM | 232 nM |  |
| Cc1ncc(C(=O)Nc2ccc(F)c(-c3cn4cc(NC(C)C)cnc4n3)c2)o1 [Compound 462] | 403 nM | 0.129 µM | 174 nM | 151 nM |  |

| SMILES | EC50 [1] | EC50 [2, 5] | EC50 [3] | EC50 [4] | EC50 ([2]; read-out: T. brucei EC50 (μM)) |
| --- | --- | --- | --- | --- | --- |
| Cc1nc(C)c(C(=O)Nc2ccc(F)c(-c3cn4cc(NCC(C)C)cnc4n3)c2)o1 [Compound 463] | 507 nM | 0.238 µM | 571 nM | 163 nM |  |
| CCC(C)Nc1cnc2nc(-c3cc(NC(=O)c4oc(C)nc4C)ccc3F)cn2c1 (stereo not shown) [Compound 464] | 672 nM | 0.109 µM | 470 nM | 148 nM |  |
| Cc1nc(C)c(C(=O)Nc2ccc(F)c(-c3cn4cc(NCC(C)(C)C)cnc4n3)c2)o1 [Compound 465] | 289 nM | 0.153 µM | 329 nM | 146 nM |  |
| CN(C)c1cnc2nc(-c3cc(NC(=O)N4CC(F)(F)C4)ccc3F)cn2c1 [Compound 466] | 207 nM | 0.044 µM | 158 nM | 183 nM |  |
| Cc1ncc(C(=O)Nc2ccc(F)c(-c3cn4cc(N(C)C)cnc4n3)c2)o1 [Compound 467] | 266 nM | 0.166 µM | 147 nM | 129 nM |  |
| CN(C)c1cnc2nc(-c3cc(NC(=O)N4CC[C@@H](F)C4)ccc3F)cn2c1 [Compound 468] | 230 nM | 0.015 µM | 87 nM | 146 nM |  |
| CN(C)c1cnc2nc(-c3cc(NC(=O)N4CCC4)ccc3F)cn2c1 [Compound 469] | 230 nM | 0.055 µM | 143 nM | 146 nM |  |
| Cc1nc(C)c(C(=O)Nc2ccc(F)c(-c3cn4cc(N(C)C)cnc4n3)c2)o1 [Compound 470] | 689 nM | 0.159 µM | 252 nM | 148 nM |  |
| CCN(CC)c1cnc2nc(-c3cc(NC(=O)c4oc(C)nc4C)ccc3F)cn2c1 [Compound 471] | 637 nM | 0.159 µM | 601 nM | 147 nM |  |
| CC(C)CNc1cnc2nc(-c3cc(NC(=O)N4CCCC4)ccc3F)cn2c1 [Compound 472] | 737 nM | 0.058 µM | 210 nM | 297 nM |  |
| CCCNc1cnc2nc(-c3cc(NC(=O)N4CCCC4)ccc3F)cn2c1 [Compound 474] | 1110 nM | 0.203 µM | 292 nM | 478 nM |  |
| O=C(Nc1ccc(F)c(-c2cn3cc(NC4CCOCC4)cnc3n2)c1)N1CCCC1 [Compound 475] | 5980 nM | 0.217 µM | 1310 nM | 9160 nM |  |
| CC(C)Nc1cnc2nc(-c3cc(NC(=O)N4CCCC4)ccc3F)cn2c1 [Compound 476] | 358 nM | 0.042 µM | 153 nM | 152 nM |  |
| CC(C)(C)OC(=O)N[C@H]1CC[C@H](CNc2cnc3nc(-c4cc(NC(=O)N5CCCC5)ccc4F)cn3c2)CC1 [Compound 477] | 425 nM | 0.055 µM | 751 nM | 386 nM |  |
| O=C(Nc1ccc(F)c(-c2cn3cc(NCCC(F)(F)F)cnc3n2)c1)N1CCCC1 [Compound 478] | > 16400 nM | 0.533 µM | 4720 nM | 5520 nM |  |
| Cc1nc(C)c(C(=O)Nc2ccc(F)c(-c3cn4cc(NCc5ncc[nH]5)cnc4n3)c2)o1 [Compound 479] | > 50000 nM | 41.9 µM | > 22800 nM | > 20000 nM |  |
| Cc1nc(C)c(C(=O)Nc2ccc(F)c(-c3cn4cc(NCc5c[nH]cn5)cnc4n3)c2)o1 [Compound 480] | > 50000 nM | 8.42 µM | > 22300 nM | > 20000 nM |  |
| Cc1nc(C)c(C(=O)Nc2ccc(F)c(-c3cn4cc(NC5CCC5)cnc4n3)c2)o1 [Compound 482] | 1010 nM | 0.494 µM | 569 nM | 547 nM |  |
| Cc1nc(C)c(C(=O)Nc2ccc(F)c(-c3cn4cc(N(C)C(C)C)cnc4n3)c2)o1 [Compound 483] | 196 nM | 0.07 µM | 169 nM | 74 nM |  |
| CC(C)OC(=O)Nc1cnc2nc(-c3cc(Nc4ccccn4)ccc3F)cn2c1 [Compound 484, isopropyl (2-(2-fluoro-5-(pyridin-2-ylamino)phenyl)imidazo[1,2-a]pyrimidin-6-yl)carbamate] | 9110 nM | 1.36 µM | 1480 nM | 361 nM |  |
| CC(C)OC(=O)Nc1cnc2nc(-c3cc(Nc4ncccc4C(F)(F)F)ccc3F)cn2c1 [Compound 485] | 11500 nM | > 50 µM | > 25000 nM | 1970 nM |  |
